Reference: patent US20250171753A1, “PEPTIDE AND USE THEREOF IN THE PREVENTION OF THERAPY-RELATED LEUKEMIA” (UNIVERSITÄT ULM, priority 2022, published 2025)
Where no end group is shown, it is not given here.

How the values were obtained:
HeLa/MLL cells = assay: Cell survival of HeLa/MLL cells by FSC/SSC gating in FACS; format: cell-based, human; conditions: HeLa/MLL nucleofected with peptide; 0.5 μM doxorubicin 4 h; 72 h
Method: HeLa/MLL cells (0.5×10^6) were nucleofected with the peptide on the first day and split into three 6-wells for further cultivation. On the second day, the cells were treated with 0.5 μM doxorubicin for 4 h. […]. Afterwards, the medium was removed, the cells were washed with 2 ml PBS and 2 ml new medium was added. For FACS measurements, the cells were washed with PBS after 72 h of culture, 200 μl of trypsin (PAN Biotech, Aidenbach, Germany) was added and the reaction was stopped with medium. Genomic DNA was isolated without recultivation after doxorubicin treatment.
Use of the fluorescence-based assay system for recombination measurements with K562/MLL or HeLa/MLL cells with chromosomally integrated plasmid pHR-EGFP/3′EGFP-MLLbcr.fwd is described in detail in Ireno et al. 2014 and Gole et al. 2015, respectively. […] This suspension was transferred to FACS tubes and the fluorescence of the cells was detected on the FACSCalibur™ (BD Biosciences, San Jose, California, USA). […] Subsequently, the selected cell population was separated in another dot-plot diagram with FL-1/FL-2 alignment depending on their fluorescence properties (FL-1 for green fluorescence, FL-2 for orange intrinsic fluorescence). Depending on the approach, 150,000 to 1,000,000 living cells were analyzed. […]

K562/MLL cells = assay: Cell survival of K562/MLL cells by FSC/SSC gating in FACS; format: cell-based; conditions: for effect of peptide on cell survival after doxorubicin treatment: K562/MLL nucleofected with 0-600 μg peptide per 1×10^6 cells; for effect of peptide on cell survival after doxorubicin treatment / cell survival: 2 μM doxorubicin 4 h; for cell survival: 72 h; for toxic effects toward leukemia cells (summary statement): leukemia cells after doxorubicin treatment; for toxicity of the peptide in K562/MLL cells: K562/MLL nucleofected with different peptide concentrations, 2 μM doxorubicin
Method: (§1) K562/MLL cells were divided 1:2 before the start of the experiment and transfected with the plasmid (2×10^6 cells) or nucleofected with the peptide (1×10^6 cells) on the second day. After 24 h, the cells were then treated with 2 μM doxorubicin (Uniklinik Ulm, Germany) and after 4 h incubation, the cells were centrifuged, the supernatant discarded and the cells taken up in 2 ml PBS (Gibco/Thermo Fisher Scientific). After centrifugation again, the supernatant was discarded and the cells were seeded in 2 ml of new culture medium for 72 h.
Use of the fluorescence-based assay system for recombination measurements with K562/MLL or HeLa/MLL cells with chromosomally integrated plasmid pHR-EGFP/3′EGFP-MLLbcr.fwd is described in detail in Ireno et al. 2014 and Gole et al. 2015, respectively. For the acquisition of recombination data, cells were harvested, pelleted, resuspended in PBS and then re-sedimented. The cell pellets were stored on ice and resuspended in PBS (mixed with 0.2% EDTA) only shortly before FACS measurement. This suspension was transferred to FACS tubes and the fluorescence of the cells was detected on the FACSCalibur™ (BD Biosciences, San Jose, California, USA). To achieve a separation between living and dead cells, the cell clouds were plotted linearly against FSC/SSC orientation in a dot plot diagram. Depending on cell size and granularity, the living cells were distinguished from cell debris and dead cells by placing a marker (gate) around the “living cell cloud”. Subsequently, the selected cell population was separated in another dot-plot diagram with FL-1/FL-2 alignment depending on their fluorescence properties (FL-1 for green fluorescence, FL-2 for orange intrinsic fluorescence). Depending on the approach, 150,000 to 1,000,000 living cells were analyzed. Recombination frequencies were determined from the proportion of green fluorescent cells in the living cell population.
K562/MLL cells were electroporated with these expression plasmids for the different Ku80 variants or the empty vector (control) and 24 h later treated for 4 h with the chemotherapeutic agent doxorubicin (2 μM). After washing the cells, they were cultured in fresh medium for a further 72 h. The subsequent detection of green fluorescent cells for analysis of recombination frequencies was achieved by FACS using a diagonal gate in a FL-1/FL-2 dot plot diagram. Living cells were pre-selected by FSC/SSC gating to distinguish between EGFP-positive and -negative within the living cells.
The peptides were introduced into K562/MLL cells by Nucleofector™ technology as described above. The cells were nucleofected with 0-600 μg peptide per 1×10^6 cells and treated with 2 μM doxorubicin for 4 h after 24 h. After washing, the cells were cultured for another 72 h in fresh medium. […] Subsequently, recombination frequencies were determined.
Cell survival was determined in parallel with the recombination measurements.

[1] = tested on: MLLbcr rearrangements in K562/MLL cells; assay: Fluorescence-based (EGFP reconstitution) recombination assay for MLLbcr rearrangements in K562/MLL cells after doxorubicin; format: cell-based, human; conditions: expression plasmid electroporated into K562/MLL; 2 μM doxorubicin 4 h after 24 h; 72 h culture; vs empty vector control set to 100%
Method: as §1
Use of the fluorescence-based assay system for recombination measurements with K562/MLL or HeLa/MLL cells with chromosomally integrated plasmid pHR-EGFP/3′EGFP-MLLbcr.fwd is described in detail in Ireno et al. 2014 and Gole et al. 2015, respectively. For the acquisition of recombination data, cells were harvested, pelleted, resuspended in PBS and then re-sedimented. The cell pellets were stored on ice and resuspended in PBS (mixed with 0.2% EDTA) only shortly before FACS measurement. This suspension was transferred to FACS tubes and the fluorescence of the cells was detected on the FACSCalibur™ (BD Biosciences, San Jose, California, USA). To achieve a separation between living and dead cells, the cell clouds were plotted linearly against FSC/SSC orientation in a dot plot diagram.

[2] = K562/MLL nucleofected with 50 μg peptide
[3] = K562/MLL nucleofected with 100 μg peptide

For `CC[C@H](C)[C@H](NC(=O)CNC(=O)[C@H](CC(=O)O)NC(=O)[C@H](CCC(N)=O)NC(=O)[C@@H](NC(=O)[C@@H](NC(=O)[C@@H](NC(=O)[C@@H](N)CCC(=O)O)[C@@H](C)CC)C(C)C)C(C)C)C(=O)N[C@H](C(=O)N[C@@H](CC(C)C)C(=O)N[C@H](C(=O)N[C@H](C(=O)N[C@@H](CCCCN)C(=O)N[C@@H](CCC(=O)O)C(=O)N[C@@H](CCC(=O)O)C(=O)N[C@@H](C)C(=O)N[C@@H](CO)C(=O)NCC(=O)N[C@@H](CO)C(=O)N[C@@H](CO)C(=O)N[C@H](C(=O)N[C@H](C(=O)N[C@@H](C)C(=O)N[C@@H](CCC(=O)O)C(=O)N[C@@H](CCC(=O)O)C(=O)N[C@@H](C)C(=O)N[C@@H](CCCCN)C(=O)N[C@@H](CCCCN)C(=O)O)[C@@H](C)O)C(C)C)[C@@H](C)O)[C@@H](C)CC)[C@@H](C)O` [Ku3], the “effect on cell survival” value (HeLa/MLL cells) was “without affecting cell survival”, the “effect of peptide on cell survival after doxorubicin treatment” value (K562/MLL cells) was “not affected” and the cell survival (K562/MLL cells; [2]) was “not affected”. For the same molecule, the cell survival (K562/MLL cells; [3]) was “not affected” and the “toxic effects toward leukemia cells (summary statement)” value (K562/MLL cells) was “without exhibiting toxic effects”.

`COc1cccc2c1C(=O)c1c(O)c3c(c(O)c1C2=O)C[C@@](O)(C(=O)CO)C[C@@H]3O[C@H]1C[C@H](N)[C@H](O)[C@H](C)O1` [doxorubicin, reference compound] was tested, and the “cell survival after doxorubicin treatment” value (K562/MLL cells; human, 4 h, 2 μM) was 70-80%.

With ASFEEASNQLINHIEQFLDTNETPYFMKSI [Ku4] the “toxicity of the peptide in K562/MLL cells” value (K562/MLL cells) was “caused toxicities” and the “reduction of cell survival after doxorubicin treatment to” value (K562/MLL cells; K562/MLL nucleofected with ≥300 μg peptide) was “≥ half”.

“EIVVQDGITLITKAEASGSSVTAEEAKK [Ku3 mut1, reference compound]” was tested, and the cell survival (K562/MLL cells; [2]) was “not affected”.

For ITKEEASGSSVTAEEAKKFLA [SEQ ID No. 4], the “toxic effects toward leukemia cells (summary statement)” value (K562/MLL cells) was “without exhibiting toxic effects”.

In the case of ITKEEASGSSVTAEEAKKFLAG [Ku1], the “effect of peptide on cell survival after doxorubicin treatment” value (K562/MLL cells) is reported as “did not affect cell survival”.

With RVLVKQKKASFEEASNQLINHIEQFL [Ku2] the “reduction of cell survival after doxorubicin treatment to” value (K562/MLL cells; K562/MLL nucleofected with 200-400 μg peptide) was “≥ half” and the “toxicity of the peptide in K562/MLL cells” value (K562/MLL cells) was “caused toxicities”.

“VDSTTIEKSIAEVAEEQESILKKVAGGT [scrambled peptide, reference compound]” was tested, and the cell survival (K562/MLL cells; [3]) was “not affected”.

B1: Ku80ct: Ku80 amino acids 592-709 fused behind the amino acids PTAKKLK of the nuclear localization signal, expressed from plasmid (protein, UniProt P13010 592-709, looked up, fragment)
chain: VNPAENFRVLVKQKKASFEEASNQLINHIEQFLDTNETPYFMKSIDCIRAFREEAIKFSEEQRFNNFLKALQEKVEIKQLNHFWEIVVQDGITLITKEEASGSSVTAEEAKKFLAPKD
modifications: N-terminal NLS peptide PTAKKLK
notes: Ku80 amino acids 592-709 fused behind the amino acids PTAKKLK of the nuclear localization signal, expressed from plasmid
B1 was tested, and the “MLLbcr rearrangements (recombination frequency) lowered by” value [1] was 45%.
